# Experimental data taken from patent publication US20120329709A1, “PRODUCTION OF GLYCOPROTEINS” (priority 2009, published 2012).
# Assays:
# [1] = test system: CHO cells; assay: Intracellular sugar-nucleotide levels from CHO cells cultured with Uridine supplementation; format: cell-based, Chinese hamster; parameters: CMP-NeuAc, average increase in sugar-nucloetide above no supplemented cells / UDP-Gal, average increase in sugar-nucloetide above no supplemented cells / UDP-Glc, average increase in sugar-nucloetide above no supplemented cells / UDP-GlcNAc, average increase in sugar-nucloetide above no supplemented cells / GDP-Man, average increase in sugar-nucloetide above no supplemented cells: unit not given here; details: for CMP-NeuAc, average increase in sugar-nucloetide above no supplemented cells / GDP-Fuc, average increase in sugar-nucloetide above no supplemented cells / GDP-Man, average increase in sugar-nucloetide above no supplemented cells / UDP-Gal, average increase in sugar-nucloetide above no supplemented cells / UDP-Glc, average increase in sugar-nucloetide above no supplemented cells / UDP-GlcNAc, average increase in sugar-nucloetide above no supplemented cells: intracellular, CHO cells
# Description: (§1) Chinese hamster ovary (CHO) cells were supplemented with the nucleoside uridine. Cells were harvested, and snap frozen, while culture supernatant was harvested and CTLA4Ig harvested by protein A purification for subsequent analysis. Cells were then subjected to nucleotide sugar extraction using standard methods. In short, this was performed with chloroform:methanol:water (2:4:1), the pellets discarded, and the resulting extraction dried down. The dried material was subsequently resuspended in 500 ul of 10% butanol in water and then extracted with 1 ml of 90% butanol in water. The butanol phase was discarded and the acqueous subjected to a second butanol extraction. The final aqueous phase was dried down and the sugar nucleotides further isolated by PGC chromatography eluting off with 25% acetonitrile (v/v) containing 50 mM triethylammonium acetate. For quantification, sugar-nucletides were resolved with RP chromatography.
# [2] = test system: CHO cells; assay: LC-MS analysis of glycans from CTLA4Ig produced by CHO cells in the presence of elevated uridine; format: cell-based, Chinese hamster; details: CTLA4Ig from uridine-supplemented CHO cells, compared to the untreated control
# Source text: FIG. 1 is a depiction of the levels of glycans from recombinant fusion protein CTLA4-IgG produced in the presence of elevated uridine. Data are expressed as the ratio of the amount of the indicated glycan from control conditions to the amount of the same glycan produced in the presence of elevated uridine. Values are the average +/−SD of duplicate determinants. A value greater than one indicates the species is in greater abundance under the control conditions.
# as §1, with “The butanol phase was discarded and the acqueous subjected to a second butanol extraction. The final aqueous phase was dried down and the sugar nucleotides further isolated by PGC chromatography eluting off with 25% acetonitrile (v/v) containing 50 mM triethylammonium acetate.” left out
# Protein product was deglycosylated with PNGase F for 18 hours and the resulting glycans isolated with PGC chromatography. […] Resulting MS peak areas were quantified and for each glycan the ratio of the control vs. the uridine treated samples was determined.
compound,measurement,setting,value
"O=c1ccn([C@@H]2O[C@H](CO)[C@@H](O)[C@H]2O)c(=O)[nH]1 [Uridine, uridine]",levels of the uridine sugars including UDP-Gal and UDP-GlcNAc,[1]; CHO cells supplemented with uridine,increased significantly
same,"CMP-NeuAc, average increase in sugar-nucloetide above no supplemented cells",[1]; Uridine 2 x,32.13
same,"GDP-Fuc, average increase in sugar-nucloetide above no supplemented cells",[1]; Uridine 2 x,6.5
same,"GDP-Man, average increase in sugar-nucloetide above no supplemented cells",[1]; Uridine 2 x,6.06
same,"UDP-Gal, average increase in sugar-nucloetide above no supplemented cells",[1]; Uridine 2 x,168.97
same,"UDP-Glc, average increase in sugar-nucloetide above no supplemented cells",[1]; Uridine 2 x,409.16
same,"UDP-GlcNAc, average increase in sugar-nucloetide above no supplemented cells",[1]; Uridine 2 x,402.7
same,"CMP-NeuAc, average increase in sugar-nucloetide above no supplemented cells",[1]; Uridine 10 x,50.52
same,"GDP-Fuc, average increase in sugar-nucloetide above no supplemented cells",[1]; Uridine 10 x,8.98
same,"GDP-Man, average increase in sugar-nucloetide above no supplemented cells",[1]; Uridine 10 x,12.45
same,"UDP-Gal, average increase in sugar-nucloetide above no supplemented cells",[1]; Uridine 10 x,389.06
same,"UDP-Glc, average increase in sugar-nucloetide above no supplemented cells",[1]; Uridine 10 x,1261.96
same,"UDP-GlcNAc, average increase in sugar-nucloetide above no supplemented cells",[1]; Uridine 10 x,2280.49
same,level of the monogalactosylated species on the protein product,[2],rises
